Test results as given in patent US10172957B2, “Acid-labile lipophilic prodrugs of cancer chemotherapeutic agents” (priority 2011, dated 2019).

Columns and labels:
Assay type in all cases: cell-based, human
CCRF-CEM (CEM) cells = test: MTT-based cytotoxicity assay, CEM; settings: Homo sapiens, CCRF-CEM, read-out: IC50 CEM (HTL), CEM human T-lymphoblastoid, MTT
Source text: (§1) A second evaluation of the cytotoxicity of the acid labile, lipophilic molecular conjugates was undertaken.
(§2) These lines included a uterine sarcoma line, MES-SA, and its doxorubicin-resistant subline, MES-SA/Dx5. See W. G. Harker, F. R MacKintosh, and B. I. Sikic. Development and characterization of a human sarcoma cell line, MES-SA, sensitive to multiple drugs. Cancer Research 43: 4943-4950 (1983); W. G. Harker and B. I. Sikic. Multidrug (pleiotropic) resistance in doxorubicin-selected variants of the human sarcoma cell line MES-SA. Cancer Research 45: 4091 4096 (1985).
The second set of cells tested, CCRF-CEM or simply CEM, were derived from the blood of a patient with acute lymphoblastic leukemia. G. E. Foley, H. Lazarus, S. Farber, B. G. Uzman, B. A. Boone, and R E. McCarthy. Continuous culture of human lymphoblasts from peripheral blood of a child with acute leukemia. Cancer 18: 522-529 (1965). The subline CEM/VLB100 was developed to be resistant to up to vinblastine at 100 ng/ml. W. T. Beck, T. J. Mueller, and L. R. Tanzer. Altered surface membrane glycoproteins in Vinca alkaloid-resistant human leukemic lymphoblasts. Cancer Research 39: 2070-2076 (1979). Drug resistance is achieved by overexpression of the MDR1 gene. Resistance in the CEM subline designated CEM/VM-1-5, however, is “atypical.” M. K. Danks, J. C. Yalowich, and W. T. Beck. Atypical multiple drug resistance in a human leukemic cell line selected for resistance to teniposide (VM-26). Cancer Research 47: 1297-1301 (1987). The classes of drugs included in the “classic” multiple drug resistance phenotype are Vinca alkaloids, anthracyclines, epipodophyllotoxins and antibiotics. However, CEM/VM-1-5 cells retain sensitivity to the Vinca alkaloids despite resistance and cross-resistance to etoposide, anthracyclines and mitoxantrone. Danks, M. K.; Schmidt, C. A.; Cirtain, M. C.; Suttle, D. P.; Beck, W. T., Altered catalytic activity of and DNA cleavage by DNA topoisomerase II from human leukemic cells selected for resistance to VM-26. Biochemistry 1988, 27, 8861-8869. Resistance in CEM/VM-1-5 cells is effected by over expression of the […]. CEM, CEM/VLB100 and CEM/VM-1-5 cells were obtained from Dr. WT Beck, University of Illinois at Chicago.

[1] = test system: MES-SA/Dx5 doxorubicin-resistant subline (MDR+); test: cells; settings: for IC50: Homo sapiens, MES-SA/Dx5, read-out: IC50 MESSA/Dx5 (MDR + Hs); for Degree of resistance (MESSA/Dx5): IC50 of the resistant line divided by IC50 of sensitive MES-SA cells
Source text: as §1, §2
(§3) MES-SA/Dx5 cells express high levels of ABCB1 (MDR1) mRNA and its gene product, the P-glycoprotein. MES-SA and MES-SA/Dx5 were purchased from the American Type Culture Collection (ATCC, Manassas, Va.).

[2] = test system: MES-SA uterine sarcoma line; test: MTT-based cytotoxicity assay, MES-SA; settings: Homo sapiens, MES-SA, read-out: IC50 MESSA (Hs)
Source text: as §1, §2, §3

Structure (SMILES)	IC50 (CCRF-CEM (CEM) cells) [nM]	IC50 [1] [nM]	Degree of resistance (MESSA/Dx5) [1]	IC50 [2] [nM]
CCCCCCCCCCCCCCCC1OCC(COC(=O)OC2=C(C)[C@@H]3C[C@H]4OC(=O)C(OC(=O)CC5(O)CCCCC5)[C@H]5[C@]6(C(=O)OC)OC[C@]45[C@H]([C@@H](O)[C@@H]6O)[C@@]3(C)CC2=O)O1 (stereo partly drawn) [ART 489]	21 ± 2	17 ± 5.7	4.3 ± 3.8	5.5 ± 3.5
COC(=O)[C@@]12OC[C@]34[C@H]([C@@H](O)[C@@H]1O)[C@@]1(C)CC(=O)C(O)=C(C)[C@@H]1C[C@H]3OC(=O)C(OC(=O)CC1(O)CCCCC1)[C@@H]24 (stereo partly drawn) [ART 198]	113 ± 53	376 ± 110	7.9 ± 0.6	47.5 ± 11
CCCCCCCCCCCCCCCC1OCC(COC(=O)O[C@@H]2C(=O)C=C(C)[C@@H]3C[C@H]4OC(=O)C(OC(=O)CC(O)(C(C)C)C(C)C)C5[C@@H](C)[C@@H](O)[C@@]6(O)OC[C@@]54C6[C@@]23C)O1 (stereo partly drawn) [ART 488]	4	7 ± 5.7	4.3 ± 1.8	1.5 ± 0.7
